The assay has as its system NCED3 transgenic seeds. In words: GA3 treatment: germination of NCED3 transgenic R2 seeds on growth medium containing GA3. It counts as in vivo, rice. The protocol: GA3 treatment: R2 seeds were surface-sterilized with 20% bleach and germinated on half-strength MS containing 0.4 mL/L Finale and filter-sterilized GA3 (gibberellin) to final concentrations of 0, 10, 100, 250, 500 or 1,000 μM.
ABA and GA3 (gibberellin) can act antagonistically in seed germination. To determine whether GA3 could release the prolonged dormancy evident in the NCED3 transgenic seeds, GA3 was added to the growth medium on which the seeds were placed for germination. […] Thus, addition of exogenous of GA3 can, at least in part, overcome the off-type of prolonged dormancy.

Here are results for one compound from patent publication US7241937B2, “Methods and materials for improving plant drought tolerance” (Ceres, Inc., priority 2004, dated 2007).

Turning to `C=C1C[C@]23C[C@@]1(O)CC[C@H]2[C@@]12C=C[C@H](O)[C@@](C)(C(=O)O1)[C@H]2[C@@H]3C(=O)O` [GA3], the “seed germination (release of prolonged dormancy)” value (GA3 at a concentration as low as 10 μM in the growth medium) was “accelerated germination”. In addition, the seedling elongation result (higher concentrations of GA3) is listed as “more elongated”. For the same compound, the seed germination result (higher concentrations of GA3 (100-1,000 μM) compared with 10 μM) is recorded as “did not significantly improve seed germination”.
